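48-hour exposure; five concentrations; linearly interpolated endpoints. TGI: total growth inhibition.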
Legend:
Assay in all cases: NCI-60 cell line screen, 48 h
786-0 renal = test system: 786-0 renal
A549 NSCLC = test system: A549 NSCLC
ACHN renal = test system: ACHN renal
CAKI-1 renal = test system: CAKI-1 renal
CCRF-CEM leukemia = test system: CCRF-CEM leukemia
COLO 205 colon = test system: COLO 205 colon
DU-145 prostate = test system: DU-145 prostate
EKVX NSCLC = test system: EKVX NSCLC
HCC-2998 colon = test system: HCC-2998 colon
HCT-116 colon = test system: HCT-116 colon
HCT-15 colon = test system: HCT-15 colon
HL-60(TB) leukemia = test system: HL-60(TB) leukemia
HOP-62 NSCLC = test system: HOP-62 NSCLC
HOP-92 NSCLC = test system: HOP-92 NSCLC
HS 578T breast = test system: HS 578T breast
HT29 colon = test system: HT29 colon
IGROV1 ovarian = test system: IGROV1 ovarian
K-562 leukemia = test system: K-562 leukemia
KM12 colon = test system: KM12 colon
LOX IMVI melanoma = test system: LOX IMVI melanoma
M14 melanoma = test system: M14 melanoma
MCF7 breast = test system: MCF7 breast
MDA-MB-231 breast = test system: MDA-MB-231 breast
MDA-MB-435 = test system: MDA-MB-435
MDA-N = test system: MDA-N
MOLT-4 leukemia = test system: MOLT-4 leukemia
NCI-H226 lung = test system: NCI-H226 lung
NCI-H23 lung = test system: NCI-H23 lung
NCI-H460 lung = test system: NCI-H460 lung
NCI-H522 lung = test system: NCI-H522 lung
NCI/ADR-RES ovarian = test system: NCI/ADR-RES ovarian
OVCAR-3 ovarian = test system: OVCAR-3 ovarian
OVCAR-4 ovarian = test system: OVCAR-4 ovarian
OVCAR-5 ovarian = test system: OVCAR-5 ovarian
OVCAR-8 ovarian = test system: OVCAR-8 ovarian
PC-3 prostate = test system: PC-3 prostate
RPMI-8226 leukemia = test system: RPMI-8226 leukemia
RXF 393 renal = test system: RXF 393 renal
SF-268 CNS = test system: SF-268 CNS
SF-295 CNS = test system: SF-295 CNS
SF-539 CNS = test system: SF-539 CNS
SK-MEL-2 melanoma = test system: SK-MEL-2 melanoma
SK-MEL-28 melanoma = test system: SK-MEL-28 melanoma
SK-MEL-5 melanoma = test system: SK-MEL-5 melanoma
SK-OV-3 ovarian = test system: SK-OV-3 ovarian
SN12C renal = test system: SN12C renal
SNB-19 CNS = test system: SNB-19 CNS
SNB-75 CNS = test system: SNB-75 CNS
SR leukemia = test system: SR leukemia
SW-620 colon = test system: SW-620 colon
T-47D breast = test system: T-47D breast
TK-10 renal = test system: TK-10 renal
U251 CNS = test system: U251 CNS
UACC-257 melanoma = test system: UACC-257 melanoma
UACC-62 melanoma = test system: UACC-62 melanoma
UO-31 renal = test system: UO-31 renal
A498 renal = test system: A498 renal
MALME-3M melanoma = test system: MALME-3M melanoma

Measured: TGI

Cc1ccc(S(=O)(=O)NC2C(=O)c3ccccc3C(=O)C2n2ccnc2)cc1 (centres undefined)
29 µM: MDA-N
53.1 µM: HCT-116 colon
52.9 µM: CCRF-CEM leukemia
80.8 µM: MOLT-4 leukemia
29.5 µM: MDA-MB-231 breast
25 µM: LOX IMVI melanoma
5.77 µM: NCI-H522 lung
38.8 µM: T-47D breast
33 µM: MDA-MB-435
32.8 µM: 786-0 renal
28.3 µM: SN12C renal
30.7 µM: DU-145 prostate
46.4 µM: HL-60(TB) leukemia
not listed: A498 renal | MALME-3M melanoma
> 100 µM: all other assays above

CCCCCCCCCCCC1=NCCN1
92.3 µM: SNB-75 CNS
48 µM: SR leukemia
68.9 µM: MDA-MB-231 breast
43.2 µM: A498 renal
44.1 µM: PC-3 prostate
39 µM: HCC-2998 colon
32.7 µM: HCT-15 colon
60.5 µM: MOLT-4 leukemia
75.4 µM: CCRF-CEM leukemia
35.4 µM: COLO 205 colon
38.7 µM: OVCAR-4 ovarian
22.9 µM: LOX IMVI melanoma
95.1 µM: UO-31 renal
67.5 µM: NCI-H522 lung
not listed: 786-0 renal | CAKI-1 renal | EKVX NSCLC | HL-60(TB) leukemia | HOP-62 NSCLC | IGROV1 ovarian | OVCAR-5 ovarian | RPMI-8226 leukemia | SF-539 CNS | SK-MEL-2 melanoma | UACC-62 melanoma | MALME-3M melanoma
> 100 µM: all other assays above

Cc1coc2c1[C@@H](O)[C@@]1(C)[C@H](CCC[C@@H]1C)C2
89.4 µM: MOLT-4 leukemia
74.7 µM: K-562 leukemia
75.7 µM: SN12C renal
84.3 µM: UACC-257 melanoma
55 µM: RXF 393 renal
47 µM: SF-539 CNS
76.3 µM: NCI-H226 lung
54.5 µM: NCI/ADR-RES ovarian
43.9 µM: M14 melanoma
60.1 µM: COLO 205 colon
38.1 µM: MDA-MB-435
99 µM: MALME-3M melanoma
93.2 µM: HOP-62 NSCLC
64.8 µM: OVCAR-3 ovarian
59.3 µM: MDA-MB-231 breast
77.5 µM: SK-MEL-5 melanoma
64.1 µM: MDA-N
73.5 µM: NCI-H522 lung
90.6 µM: RPMI-8226 leukemia
47.8 µM: OVCAR-8 ovarian
62 µM: HL-60(TB) leukemia
not listed: A549 NSCLC | SK-MEL-2 melanoma | SNB-75 CNS | U251 CNS | UO-31 renal | A498 renal
> 100 µM: all other assays above

— PubChem BioAssay (NCI)
